Article PMC12119673, “Apoptotic cell death induced by copper (II), manganese (II) and silver (I) complexes containing bridging dicarboxylate and 1,10-phenanthroline ligands: one of the multi-modes of anticancer activity?” (Biometals, 2025)
Like-named read-outs stand apart in the source and are kept apart here.

Legend:
Assay type in all cases: cell-based, human
MCF-12A cells = assay: In vitro cytotoxicity assessment, alamar blue assay, 24-h exposure; settings: for Decrease in activity towards MCF-12A cells relative to MCF-7 cells (selectivity): IC50 MCF-12A vs IC50 MCF-7, 24 h
Description: The MCF-7 (human breast cancer) and MCF-12A (non-tumourigenic human breast) cell lines were obtained from the Technological University Dublin (TUDublin, City Campus) internal cell bank and commercially from the American Type Culture Collection (ATCC), respectively. Both cell lines were cultured using Dulbecco’s Modified Eagle Medium/Nutrient Mixture F-12 Ham (DMEM-F12) (Sigma, Ireland) (Cat# D6421) media. The MCF-7 media was supplemented with 10% Foetal Bovine Serum (Sigma, Ireland) (Cat# F7524) and 1% L-Glutamine (Sigma, Ireland) (Cat# 592020C). The MCF-12A media was supplemented with 5% Equine Serum (Sigma, Ireland) (Cat# H0146) 1.25% L-Glutamine (Sigma, Ireland) (Cat# 592020C), 20 ng/ml Human Epidermal Growth Factor (Thermo Fisher Scientific, Ireland) (Cat# PHG0313), 0.01 mg/ml insulin (Thermo Fisher Scientific, Ireland)(Cat# 12585014) and 500 ng/ml hydrocortisone (Sigma, Ireland) (Cat# H0888). The cells were grown in T75 culture flasks (Sarstedt, Germany) (Cat# 83.3911.002) and were incubated in a 5% CO2 atmosphere at 37 ℃. The cells were monitored daily, and once 80–90% confluence was reached, they were subcultured with an enzymatic dissociation method using trypsin. Both cell lines were routinely subcultured for 1 week prior to beginning experimental work, to ensure the cells had adapted to the environment.
The MCF-7 and MCF-12A cells were seeded at a density of 1 × 10^4 in 96-well flat bottom plates (Sarstedt, Germany) (Cat# 83.3924) and incubated in a 5% CO2 atmosphere at 37 ℃ for 24 h prior to exposure to the complexes. Following the incubation period, the media was removed, and cells were washed with sterile phosphate-buffered saline (PBS). […] All agents were diluted in supplemented cell culture media, and the cells were exposed to a concentration range of 0.5 μM–100 μM for 24 h in the conditions outlined previously. Following the exposure period, the drug-containing media was removed, and cells were washed three times with PBS, ensuring complete removal of the test agents. A 5% working solution of Alamar Blue (Thermo Fisher Scientific, Ireland) (Cat# DAL1100) was prepared in dark conditions using unsupplemented cell culture media. 100 μl of the solution was added to each well, and the cells were incubated for 3 h. Following incubation, absorbance values were obtained using a Varioskan Lux (Thermo Scientific, USA) at 570 nm and 600 nm wavelengths. Each exposure was carried out in triplicate plates and was repeated three independent times.
The software packages Microsoft^Ⓡ Excel (USA) and GraphPad Prism (Ver. 10.0.3) (GraphPad, USA) were used to analyse the alamar blue data. The treated sample values were first normalised to the negative control values. After normalisation, the mean and standard deviations (SD) were established using Microsoft^Ⓡ Excel. The statistical analysis package GraphPad was then used to determine the IC25 and IC50 concentrations. […] A p value of 0.05 or lower is considered to be statistically significant.

[1] = test system: apoptotic genes in MCF-12A cells; assay: Apoptosis-related gene expression, qRT-PCR; settings: IC25 concentration, 24 h, relative to negative control
Description: (§1) A broad scope of molecular targets involved in the apoptotic pathway were selected for analysis using qRT-PCR including initiators, mediators and inhibitors. These gene targets along with their cellular location and associated primer set are outlined in Table 2. Primer sets for each gene were designed using NCBI nucleotide sequences and the Primer3 application (Table 3). Once designed, the primers were synthesised by Sigma Aldrich, Ireland.
(§2) MCF-7 and MCF-12A cells were seeded at a density of 1 × 10^5 in T25 flasks and incubated for 24 h allowing for attachment. Following incubation, the seeding media was removed, and the cells were washed with PBS. […] Post-exposure, RNA was isolated from the cells. Tri-reagent^Ⓡ (Sigma, Ireland) (Cat# T9424) was added to the cells followed by centrifugation at 300 g for 5 min. The RNA was precipitated using chloroform, followed by centrifugation and washing of the pellet using 75% ethanol. The RNA was resuspended in 30 μl of nuclease-free water. The RNA was either used immediately for qRT-PCR or stored at −80 ℃. The RNA from each sample was quantified using the NanoDrop™ 2000 Spectrophotometer (Thermo Fisher Scientific, Ireland). The A260/A230 ratio was measured to ensure the purity of each sample. Prior to cDNA synthesis, all samples were adjusted to a concentration of 100 ng. The RNA was then reverse transcribed into cDNA using the Quanta Biosciences Kit (Quanta Biosciences, USA) (Cat# 95047). Using the SimpliAmp Thermal Cycler (Applied Biosystems; Thermo Fisher Scientific, Ireland), the following settings were applied: 5 min at 22 ℃, 30 min at 42 ℃, 5 min at 85 ℃; samples were then maintained in an indefinite hold at 4 ℃ prior to being used for quantitative real-time PCR. The cDNA templates were amplified and analysed using SYBR™ Green (Fisher Scientific, UK) (Cat#10187094). Using the 7500 fast Real-Time PCR System (Applied Biosystems, USA), the following thermal cycling setting were applied for amplification: Pre-Incubation (1 cycle) 95 ℃, 5 Minutes, 4.4 ℃ ramp; Amplification (45 cycles) 95 °C 10 s ramp 4.4 °C, 60 °C 10 s ramp 2.2 °C, 72 °C 10 s ramp 4.4 °C; Melting Curve (1 cycle) 95 °C 5 s ramp 4.4 °C, 65 °C 1 min ramp 2.2 °C, 97 °C continuous ramp 0.11 °C acquisition 10 per °C; Cooling (1 cycle) 40 °C 10 s ramp 1.5 °C. Two reference genes, actin and tubulin, were employed to determine the expression of the target genes. No template controls were included to confirm the absence of template contamination and auto-fluorescence. Each PCR plate contained three technical replicates per sample and gene target, with each experiment repeated three independent times using three individual biological replicates.
(§3) qRT-PCR data was analysed by first using the Vandesompele method to calculate the geometric mean of Ct values for the reference genes, actin and tubulin. These values were used for normalisation of the target gene expression values which were then calculated using the Livak and Schmittgen formula: 2^−ΔCt1(test)−ΔCt2(control) (Livak and Schmittgen [2001]; Vandesompele et al. [2002]).
(§4) The expression profiles (Fig. 4) display the log(2) transformed mean expression value for each gene target relative to the negative control. Expression values for each target were determined relative to the geometric means of reference genes. […] Each graph contains a threshold line, set at the value of one, this represents baseline expression levels of genes.

[2] = test system: apoptotic genes in MCF-7 cells; assay: Apoptosis-related gene expression, qRT-PCR; settings: MCF-7, IC25 concentration, 24 h, relative to negative control
Description: as §1, §2, §3, §4

[3] = MCF-12A, 24-hour exposure, per one metal centre, mean ± S.D. (N=3)
[4] = MCF-12A, 24-hour exposure, per one metal centre, mean ± S.D. (N=3), read-out: IC50 calculated per one metal centre
[5] = MCF-12A, 24-h exposure, 25% reduction in metabolic activity, mean ± SD (N = 3)

## O=C([O-])CCCCCCC(=O)[O-].[Cu+2].[Cu+2].[O-][Cl+3]([O-])([O-])[O-].[O-][Cl+3]([O-])([O-])[O-].c1cnc2c(c1)ccc1cccnc12.c1cnc2c(c1)ccc1cccnc12.c1cnc2c(c1)ccc1cccnc12.c1cnc2c(c1)ccc1cccnc12 [Complex 1, [Cu2(oda)(phen)4](ClO4)2]
MCF-12A cells
  Cytotoxic activity IC25 ± SD: 4.86 ± 1.91 µM
  IC50: 6.14 ± 0.37 µM
MCF-12A cells; [3]
  IC25 calculated per one metal centre: 9.72 ± 3.82 µM
MCF-12A cells; [4]
  IC50: 12.3 ± 0.74 µM
[1]
  Caspase gene expression (caspase-9, -8, -3): expressed caspase 8
  Pro-apoptotic gene expression (BID, BIM, BAD, BAX): upregulated expression of the gene encoding BH3-only protein BID
[2]
  Caspase gene expression (caspase-9, -8, -3): expressing initiator caspase 9
  Pro-apoptotic gene expression (BID, BIM, BAD, BAX): upregulated expression of the gene encoding BH3-only protein BID

## O=C([O-])CCCCCCC(=O)[O-].[Cu+2].c1cnc2c(c1)ccc1cccnc12.c1cnc2c(c1)ccc1cccnc12 [Complex 2, [Cu(oda)(phen)2]]
MCF-12A cells; [5]
  Cytotoxic activity IC25 ± SD: 0.68 ± 0.13 µM
MCF-12A cells; [3]
  IC25 calculated per one metal centre: 0.68 ± 0.13 µM
MCF-12A cells; [4]
  IC50: 1.65 ± 0.13 µM
[1]
  Caspase gene expression (caspase-9, -8, -3): expressed caspase 8
  Pro-apoptotic gene expression (BID, BIM, BAD, BAX): upregulated expression of the gene encoding BH3-only protein BID
[2]
  Caspase gene expression (caspase-9, -8, -3): expressing initiator caspase 9
  Pro-apoptotic gene expression (BID, BIM, BAD, BAX): upregulated expression of the gene encoding BH3-only protein BID

## O=C([O-])CCCCCCC(=O)[O-].[Ag+].[Ag+].c1cnc2c(c1)ccc1cccnc12.c1cnc2c(c1)ccc1cccnc12.c1cnc2c(c1)ccc1cccnc12 [Complex 4, [Ag2(oda)(phen)3]]
MCF-12A cells; [5]
  Cytotoxic activity IC25 ± SD: 4.91 ± 0.14 µM
MCF-12A cells; [3]
  IC25 calculated per one metal centre: 9.82 ± 0.28 µM
[1]
  Caspase gene expression (caspase-9, -8, -3): expression of caspase-9 and caspase-3
  Pro-apoptotic gene expression (BID, BIM, BAD, BAX): significantly elevated BIM and BAD expression
[2]
  Caspase gene expression (caspase-9, -8, -3): expression of caspase-9 and caspase-3

## O=C([O-])CCCCCCCCCC(=O)[O-].[Ag+].[Ag+].c1cnc2c(c1)ccc1cccnc12.c1cnc2c(c1)ccc1cccnc12.c1cnc2c(c1)ccc1cccnc12 [Complex 5, [Ag2(udda)(phen)3]]
MCF-12A cells; [5]
  Cytotoxic activity IC25 ± SD: 5.52 ± 0.51 µM
MCF-12A cells; [3]
  IC25 calculated per one metal centre: 11.04 ± 1.0 µM
[1]
  Caspase gene expression (caspase-9, -8, -3): expression of caspase-9 and caspase-3
  Pro-apoptotic gene expression (BID, BIM, BAD, BAX): significantly elevated BIM and BAD expression
[2]
  Caspase gene expression (caspase-9, -8, -3): expression of caspase-9 and caspase-3

## c1cnc2c(c1)ccc1cccnc12 [Phen, 1,10-Phenanthroline]
MCF-12A cells; Homo sapiens, MCF-12A, 24 h, read-out: IC50 calculated per one metal centre
  IC50: 20.9 ± 1.96 µM
MCF-12A cells; [5]
  Cytotoxic activity IC25 ± SD: 11.14 ± 4.39 µM
MCF-12A cells; [3]
  IC25 calculated per one metal centre: 11.14 ± 4.39 µM
[1]
  Caspase gene expression (caspase-9, -8, -3): all caspases seen to be activated
  Pro-apoptotic gene expression (BID, BIM, BAD, BAX): pro-apoptotic BIM and BAD were upregulated
[2]
  Caspase gene expression (caspase-9, -8, -3): all caspases seen to be activated
  Pro-apoptotic gene expression (BID, BIM, BAD, BAX): pro-apoptotic BIM and BAD were upregulated

## {[Mn2(oda)3(phen)4]^2−[Mn2(oda)(phen)4 (H2O)2]^2+} [Complex 7]
MCF-12A cells; listed as 7
  Decrease in activity towards MCF-12A cells relative to MCF-7 cells (selectivity): almost tenfold reduction in cytotoxicity
MCF-12A cells; listed as complex 7
  Decrease in activity towards MCF-12A cells relative to MCF-7 cells (selectivity): almost tenfold decrease in activity
MCF-12A cells; [5]
  Cytotoxic activity IC25 ± SD: 0.38 ± 0.39 µM
MCF-12A cells; MCF-12A, 24-h exposure, 50% reduction in metabolic activity, mean ± SD (N = 3), read-out: Cytotoxic activity IC50 ± SD
  IC50: 26.1 ± 7.7 µM
MCF-12A cells; [3]
  IC25 calculated per one metal centre: 1.52 ± 1.56 µM
MCF-12A cells; [4]
  IC50: 104 ± 30.8 µM
[1]
  Caspase gene expression (caspase-9, -8, -3): Initiator caspase 9 was expressed by MCF-12A cells, but executioner caspase-3 was not found to be expressed
  Pro-apoptotic gene expression (BID, BIM, BAD, BAX): only shown to express BIM
[2]
  Caspase gene expression (caspase-9, -8, -3): No caspase activity was observed
  Pro-apoptotic gene expression (BID, BIM, BAD, BAX): expression of both BID and BIM
